We go through 3 compounds from publication PMC9694897 (Metabolites, 2022).

The term IC50 denotes the concentration at which inhibition is half-maximal.

Data set [1] in a line: DPPH free radical scavenging assay. As for the experimental part: Free radicals and 1,1-diphenyl, 2-picrylhydrazyl (DPPH) were used for the illustration of the free radical scavenging ability of the molecule. This assay involved the addition of different dilutions (250, 500 and 1000 μg/mL) of this compound to 0.004% methanolic solution of DPPH. […] Ascorbic acid, in this case, was used as a positive control. The percent activity was calculated according to the formula.
A general note: Loss of DPPH colour is used to gauge radical scavenging.

A short description of data set [2]: ABTS free radical scavenging assay. As to conditions: read-out: ABTS IC50.
Protocol: To determine the radical scavenging activity of the compound, we added 3.0 mL of ABTS solution to 300 mL of the compound in a cuvette. By spectrophotometer, we measured the absorbance reduction one minute after the mixing of the solution and continued measuring it for 6 min. For positive control, ascorbic acid is used. We then repeated the assay three times and calculated the percent of inhibition according to the formula [35].
The subject of data set [3] is carrageenan induced inflammation. Put plainly: In-vivo carrageenan method of inflammation (paw edema). As to conditions: flavone 10 mg/kg, aspirin 100 mg/kg. Further details: species or system Albino mice. The text has this:
(§1) The Albino mice with an average body weight of 25–30 g were obtained from NIH, Islamabad, Pakistan from our designed studies. The animals were kept in the animal house of the university and were kept under controlled conditions as per the standard guidelines. The animals were used in experiments according to the standard protocols as per the approval of Departmental Ethical Committee with approval letter number DREC-140 [36].
The progression of inflammation stimulated by carrageenan is a biphasic system. In the initial phase the serotonin and histamine were released, while in the second phase of swelling prostaglandin, bradykinin, leukotriene and lysozyme were mediated. The non-steroidal and steroidal drugs can wield their function in the second phase of the edema formation.
In the assay, animals were randomly divided into three groups with eight in each group. The first group, Group I, was the negative control and was given dimethyformamide 1% 10 mL/kg bw. […] The third group (Group III) was given 10 mg/kg bw of the isolated flavone. After ½ h, 1% of the saline solution of carrageenan (w/v, 0.05 mL) was given in a sub-planter area of the animals. Afterwards, the paw edema was determined with the help of a plethysmometer (Model LE 7500 plan. Lab SL) with different time intervals. The paw edema of the mice administered with flavone, and with those of the standard drug, were measured at different time intervals. The measurements of paw edema were compared with the mice serving as the negative control group. The percent inhibition activity was calculated as per the standard procedure.

The target of the next data set is T1, COX-2 (Homo sapiens, UniProt P35354).
T1 sequence (P35354 18-604): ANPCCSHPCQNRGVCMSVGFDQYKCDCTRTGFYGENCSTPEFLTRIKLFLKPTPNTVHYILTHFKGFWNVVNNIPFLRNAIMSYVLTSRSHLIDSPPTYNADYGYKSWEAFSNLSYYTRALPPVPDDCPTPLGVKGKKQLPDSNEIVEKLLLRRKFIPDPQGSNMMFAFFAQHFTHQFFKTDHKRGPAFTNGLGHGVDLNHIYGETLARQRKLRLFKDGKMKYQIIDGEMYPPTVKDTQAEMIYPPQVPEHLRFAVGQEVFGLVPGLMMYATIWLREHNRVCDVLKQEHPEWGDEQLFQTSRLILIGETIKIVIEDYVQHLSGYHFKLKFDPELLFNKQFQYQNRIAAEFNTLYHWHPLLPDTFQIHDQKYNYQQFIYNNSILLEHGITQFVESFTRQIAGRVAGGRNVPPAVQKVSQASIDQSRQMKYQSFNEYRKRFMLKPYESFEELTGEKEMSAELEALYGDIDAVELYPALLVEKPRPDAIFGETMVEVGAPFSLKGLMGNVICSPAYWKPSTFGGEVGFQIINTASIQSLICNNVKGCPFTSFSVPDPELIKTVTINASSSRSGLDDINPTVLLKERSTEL
Put plainly: biochemical.

Data set [4] deals with CCl4-induced oxidative stress markers (SOD, CAT, MDA, TP). The experiment in a line: In-vivo antioxidant markers in CCl4-induced oxidative stress. Further details: species or system Albino mice. The following applies: CCl4 treated mice.
Source text: as §1
In this assay, the experimental animals were divided into four groups with five animals in each group. Group I was given the corn oil as a vehicle. The remaining three groups ([…]) were given CCl4 in corn oil in a ratio of 1 to 5 (v/v) for the induction of oxidative stress. The two groups were given 5 and 10 mg/kg bw of the isolated flavone for two weeks. One day after the last administration, the animals were given IM zoletil50 (30 mg/kg bw) with xylazine (5 mg/kg bw) for about 10 min to get anesthetized. Afterwards, the blood sample was taken out by cardiac puncture into EDTA-tubes. After the experiments, the animals were euthanized as per the standard procedure. The blood (200 μL) was centrifuged for 10 min at the rate of 3000 rpm. The plasma was used for the biochemical studies. Afterwards, 0.9% of physiological saline was added to the cellular layer to double up the volume. Again, it was centrifuged under the same set of conditions and the upper layer was discarded. The experiments were repeated three times and erythrocytes were isolated. The isolated erythrocytes were stored at a low temperature (−20 °C). The vital organs like kidneys, liver and heart were harvested, washed and weighted.
The RBCs were employed in a cellular model to evaluate the potency of antioxidants to penetrate into the living cells from plasma.
The superoxide dismutase assay was performed as per the reported procedure. […] The reaction was initiated with the addition of adrenaline (0.3 mM, 0.3 mL) to the buffered mixture. This was mixed immediately and was subjected to a spectrophotometer as a sample cuvette. The solution of buffer (2.5 mL), substrate (0.3 mL) and distilled water (0.2 mL) were added in the reference cuvette. The increase in absorbance (480 nm) was monitored for 2.5 min with 30 sec intervals against a blank. The SOD was calculated as per the reported procedure.
The catalase assay on the isolated compound was performed as per the standard protocols. […] To each of these test tubes, potassium dichromate was added. The tubes were heated for 10 min up to 100 °C. The tubes were then allowed to cool down and optical density was measured at 570 nm. The standard curve of concentration vs. absorbance of H2O2 was plotted. Afterwards, haemolysate (1 mL) was diluted and added to the test tube containing H2O2 (2 mL) and phosphate buffer (2.5 mL, 0.01 M having pH 7.0) and were mixed. After every 30 sec, one ml of solution was withdrawn and was transferred to acidified potassium dichromate (2 mL) for 2 min. This was mixed and heated up to 100 °C for 10 min. The solution was then cooled down and optical density was measured (at 570 nm) against the blank. The catalase activity was calculated as per the standard method.
The lipid peroxidation was performed with malondialdehyde assay as per the reported methods. The diluted haemolysate (0.4 mL, 1:10 v/v) was added to the test tube containing acetic acid sodium hydroxide along with thiobarbituric acid, having a volume of 2 mL each. […] The activity was then calculated as per the standard method.
The total proteins assay of the experiment was performed as per the standard method. The diluted haemolysate (0.2 mL), bovine albumin (0.2 mL, 2 g/dl), distilled water (2 mL) and working reagent 1 mL (CuSO4 with NaK one part and Na2CO3 with NaOH 100 parts) were added in different test tubes. This was mixed and incubated at room temperature for 10 min. […] The absorbance was measured at 570 nm against the blank.

In another data set the test system is 5-LOX. As to conditions: read-out: IC50 5-LOX.
The target of a further data set is T2, eqBChE (Equus caballus, UniProt P81908).
T2 construct: The butyrylcholinesterase (BChE) is obtained from equine serum; from tissue; host or cells: equine serum
T2 sequence (P81908 whole entry): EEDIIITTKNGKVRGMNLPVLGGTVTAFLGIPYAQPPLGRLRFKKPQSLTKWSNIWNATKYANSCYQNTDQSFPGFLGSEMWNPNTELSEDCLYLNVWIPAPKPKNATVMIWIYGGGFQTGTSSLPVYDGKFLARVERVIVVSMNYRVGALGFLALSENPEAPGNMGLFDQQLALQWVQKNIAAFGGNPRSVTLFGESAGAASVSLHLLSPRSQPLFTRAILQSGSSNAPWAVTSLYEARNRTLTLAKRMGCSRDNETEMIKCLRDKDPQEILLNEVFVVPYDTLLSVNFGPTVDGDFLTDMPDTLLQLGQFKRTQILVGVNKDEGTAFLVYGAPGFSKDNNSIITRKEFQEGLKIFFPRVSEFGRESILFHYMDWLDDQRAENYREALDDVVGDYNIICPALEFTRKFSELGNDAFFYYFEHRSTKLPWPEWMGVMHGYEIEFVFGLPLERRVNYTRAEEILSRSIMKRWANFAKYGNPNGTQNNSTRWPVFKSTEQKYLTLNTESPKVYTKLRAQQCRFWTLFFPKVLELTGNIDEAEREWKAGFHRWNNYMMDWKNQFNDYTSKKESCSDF
The experiment in a line: Anti-cholinesterase assay (DTNB, spectrophotometric), BChE. Type of data set: biochemical, equine. The text has this: (§2) For the determination of anti-cholinesterase activity of the compounds, the acetylcholinesterase enzymes used were obtained from an electric eel. The butyrylcholinesterase (BChE) is obtained from equine serum. The principle of this assay is based on the hydrolysis of […] by the enzymes AChE and the hydrolysis of butyrylcholine iodide by the enzyme butyrylcholinesterase. This process of hydrolysis yields 5-thio-2-nitrobenzoate anion which then form a complex with DTNB (yellow color) which can be detected by spectrophotometer.
(§3) Then KOH was used for the adjustment of pH.
(§4) In each of these enzyme assays, the enzyme solution (5 μL) was added to the cuvette followed by the addition of the compound (205 μL), and finally DTNB reagents (5 μL) were added. The solution was maintained in a water bath at a temperature of 30 °C for 15 min, and then the substrate solution (5 μL) was added. […] The negative control consists of all the components except the compound. […] The absorbance, as well as the reaction time, were taken for 4 min at a temperature of 30 °C and were repeated in triplicate.

For another data set, the target named is T3, Human recombinant MAO-B (Homo sapiens, UniProt P27338).
T3 sequence (P27338 1-520): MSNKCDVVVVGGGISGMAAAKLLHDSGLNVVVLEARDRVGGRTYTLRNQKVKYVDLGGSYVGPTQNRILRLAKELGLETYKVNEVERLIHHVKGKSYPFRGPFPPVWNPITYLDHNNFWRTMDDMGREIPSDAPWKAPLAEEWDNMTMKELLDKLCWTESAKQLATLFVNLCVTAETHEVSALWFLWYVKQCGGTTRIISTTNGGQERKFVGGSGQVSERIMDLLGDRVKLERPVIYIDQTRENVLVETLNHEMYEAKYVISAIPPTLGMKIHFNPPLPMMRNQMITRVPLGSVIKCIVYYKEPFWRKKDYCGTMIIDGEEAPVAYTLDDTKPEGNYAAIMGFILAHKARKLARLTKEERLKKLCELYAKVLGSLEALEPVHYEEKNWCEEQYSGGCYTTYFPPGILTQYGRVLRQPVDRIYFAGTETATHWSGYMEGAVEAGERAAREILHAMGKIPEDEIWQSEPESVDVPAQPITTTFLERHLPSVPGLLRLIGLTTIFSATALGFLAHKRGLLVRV
The experiment in a line: MAO-B inhibition assay (Amplex Red).

The nature of another data set: Acute toxicity. As to conditions: mice, 25-2000 mg/kg b. wt, monitored 3 days.
Source text: as §1

Another data set concerns the target T4, eeAChE (Electrophorus electricus, UniProt O42275).
T4 construct: the acetylcholinesterase enzymes used were obtained from an electric eel; from tissue; host or cells: electric eel
Put plainly: biochemical.
Source text: as §2, §3, §4

T4 sequence (O42275 24-633): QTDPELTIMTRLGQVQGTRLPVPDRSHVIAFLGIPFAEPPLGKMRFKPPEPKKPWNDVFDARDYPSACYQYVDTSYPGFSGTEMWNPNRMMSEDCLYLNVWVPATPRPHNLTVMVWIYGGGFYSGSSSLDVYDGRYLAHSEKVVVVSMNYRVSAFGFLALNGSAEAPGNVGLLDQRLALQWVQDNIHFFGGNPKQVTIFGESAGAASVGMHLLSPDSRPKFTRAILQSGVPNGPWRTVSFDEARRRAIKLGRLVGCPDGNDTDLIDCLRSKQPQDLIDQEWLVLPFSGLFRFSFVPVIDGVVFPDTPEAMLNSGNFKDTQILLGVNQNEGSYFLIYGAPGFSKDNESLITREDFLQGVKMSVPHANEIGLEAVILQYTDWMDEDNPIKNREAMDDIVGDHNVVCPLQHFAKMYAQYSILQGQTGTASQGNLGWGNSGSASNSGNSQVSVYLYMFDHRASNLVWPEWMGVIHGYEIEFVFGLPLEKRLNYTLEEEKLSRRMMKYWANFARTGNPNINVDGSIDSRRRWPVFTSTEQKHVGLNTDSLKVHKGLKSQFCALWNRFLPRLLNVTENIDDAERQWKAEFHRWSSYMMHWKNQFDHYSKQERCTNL
Protocol for 5-LOX: Using an established procedure, the 5-lipoxygenase activity was performed. […] Afterwards, the 5-lipoxygenase solution (10,000 Unit/mL) was prepared. Linoleic acid (80 Mm) was the substrate used for the 5-LOX assay. We also prepared phosphate buffer (50 Mm) with PH 6.3. WE dissolved the various concentrations of the compound in each 0.25 mL of phosphate buffer, then added 0.25 mL of lipoxygenase enzyme to it and incubated it at 25 °C for 5 min. […] We repeated this experiment three times. The standard drug used was Zileuton [36]. By using the following equation, percent inhibition was calculated: Percent inhibition=Absorbance of control−absorbance of sample/Absorbance of control×100
Protocol for Human recombinant MAO-B: Human recombinant MAO-B enzymes used in this assay were obtained from insect cells. The substrate used for MAO-B enzyme is benzylamine hydrochloride. For all the enzymes reactions, as well as for dilutions sodium phosphate buffer (0.05 M), a PH of 7.4 is used. […] The activity of the test compound hMAO-B assay is determined by calculating its effect on H2O2 production from benzylamine while using an Amplex Red MAO assay kit (Invitrogen). In this assay, a volume of 0.1 mL sodium phosphate buffer (0.05 M) with a PH of 7.4, which contains different concentrations of the test compound (reference inhibitors or new compound) and a sufficient quantity of recombinant hMAO-B (0.5 μL, 71 Unit/mg) is incubated at 37 °C for 1 h in a 96-well plate. After incubating, the reaction was initiated by the addition of (final concentration) 200 μM Amplex Red reagent, 1 mM benzylamine hydrochloride and 1 Unit/mL horseradish peroxidase. The H2O2 production, and finally resorufin, was measured in a multi-detection microplate fluorescence reader (TECAN) at 37 °C and with an absorbance of 570 nm. […] Then, specific fluorescence absorbance was determined after subtracting the background activity, measured from the vials which contains all the components except hMAO-B, and was replaced by buffer solution [34].

In the case of `C[C@H]1O[C@H](O[C@H]2[C@H](O)[C@@H](O)[C@@H](O[C@H]3[C@H](O)[C@@H](O)C(O)O[C@@H]3CO)O[C@@H]2CO)[C@H](O)[C@@H](O)[C@@H]1N[C@H]1C=C(CO)[C@@H](O)[C@H](O)[C@H]1O` (some centres unmarked) [Acarbose, reference compound], the IC50 in data set [1] was 16000 nM; in data set [2], 12700 nM.
`CC(=O)Oc1ccccc1C(=O)O` [Aspirin, reference compound]: the “percent inhibition of paw edema” value in [3] (fifth h) came to 57.64%; in data set [3] (first hour) it was 47.54%; in data set [3] (fourth h) it was 56.92%; in data set [3] (second hour), 54.63%; in [3] (third h), 53.26%.
On to `COc1ccc(-c2oc3cc(O)ccc3c(=O)c2O)cc1OC` [Isolated flavone, 2-(3,4-dimethoxyphenyl)-3,7-dihydroxy-4H-chromen-4-one], for which the IC50 is 380 ± 120 nM against COX-2; 44300 nM in [1]; 33400 nM in data set [2]; 840 ± 130 nM in the data set on 5-LOX; 950 ± 40 nM against eqBChE; 140 ± 10 nM on Human recombinant MAO-B. This compound gave an IC50 against eeAChE of 1370 ± 10 nM. Moreover, at COX-2, the “SI (COX-2 selectivity)” value is recorded as 18.70. The MDA blood levels in data set [4] (5 mg/kg for two weeks) is 1.15 ± 0.05 µmol/L; in data set [4] (10 mg/kg for two weeks), 1.05 ± 0.03 µmol/L. For the same compound, the “SOD blood levels (second mention)” value in [4] (5 mg/kg for two weeks) was 0.12 ± 0.02 UL/mg; in data set [4] (10 mg/kg for two weeks) it was 0.12 ± 0.32 UL/mg. Further, the SOD levels is on record as 8.52 ± 0.51 UL/mg in data set [4] (5 mg/kg for two weeks) and 9.58 ± 0.41 UL/mg in data set [4] (10 mg/kg for two weeks). In addition, in data set [4] (treated groups versus CCl4 group), the TP levels result is “significantly changed”. At eqBChE, this compound displayed an SI of 1.44. Further, the “percent inhibition of paw edema” value in [3] (fifth h) turned out to be 45%; in [3] (first hour) it was 45%; in [3] (fourth h), 49%; in data set [3] (second hour) it was 47%; in data set [3] (third h) it was 42%. The “safety in animals (acute toxicity)” value in “Acute toxicity” is “safe”.
